The subject of data set [1] is Hep G2 transplanted tumor. Briefly: Transplanted tumor of liver cancer in nude mice. The note with it: BS-FC-308 35 mg/kg/time, erlotinib hydrochloride 20 mg/kg/time.
Method: Liver cancer cell lines: Hep G2 (human liver cancer cell line);
Animal: BALBc nude mice (immunodeficient mice), 8 weeks, female, purchased from Shanghai Laboratory Animal Center of Chinese Academy of Sciences, China.
Under sterile conditions, the Hep G2 cells in the logarithmic growth phase were respectively collected and injected subcutaneously in an amount of 2.3×10^7/0.2 mL/nude mice (cell viability >90%) into the left subaxillary of the nude mice, thus establishing a transplanted tumor model of liver cancer in nude mice. The mice were administered from the second day after inoculation. The experimental group was intragastrically administered with the experimentally designed amount, the negative control group was intragastrically administered with sterile water, and the positive control group was intragastrically administered with erlotinib hydrochloride. Each mouse was intragastrically administered in 0.4 ml each time and 3 times a day, at 8:00, 14:00 and 20:00, with 6-hour intervals. The administrations were successive for 10 days. The day before administration was deemed as Day 0 and the weight and tumor size of the mice were determined every 5 days to produce a dynamic plot on weight and tumor growth (the experimental results are presented as mean±SD). On Day 28, the mice were sacrificed and the tumors were taken out and weighed. The tumor inhibition rate (%) after the effect of the medicament was calculated based on a tumor inhibition rate of the control group being zero.
The experimental data for each group were analyzed by using the One-way ANOVA method in the SPSS 19.0 statistical software and were compared with the control group for significance of difference.
In data set [2] the test system is K562/ADR (K562adr, drug-resistant chronic myeloid leukemia) cells. Briefly: MTT cell growth inhibition, leukemia cells. In kind it is cell-based. The conditions noted are these: Homo sapiens, K562/Adr, 72 h. From the text: (§1) Leukemia cell lines: leukemia cell lines: K562adr (drug-resistant, chronic myeloid leukemia, CML), NB4 (acute promyelocytic leukemia, AML), Kasumi-1 (acute myeloid leukemia M2 type, AML-M2), Jurkat (acute lymphoblastic leukemia, ALL), all of which were donated by Cancer Research Institute of Zhejiang University, China; and H9 (acute lymphoblastic leukemia, ALL), which was purchased from China Center for Type Culture Collection.
(§2) Reagents: The standard sample of fangchinoline (FAN) was purchased from Ci Yuan Biotechnology Co., Ltd., Shaanxi, China; and the 7-substituted fangchinoline derivatives according to the present invention.
(§3) 6000 well-growing leukemia cells were obtained and inoculated into wells of a 96-well cell culture plate. The culture medium was a RPMI-1640 cell culture medium containing 10% fetal bovine serum. After adding the 7-substituted fangchinoline derivatives of different concentrations the next day and mixing uniformly, the plate was placed in a carbon dioxide cell incubator (5% CO2) at 37° C. and incubating for 72 hours. Then the viable cell concentration was determined by the MTT method.

Data set [3] deals with NB4 (acute promyelocytic leukemia) cells. Briefly: MTT cell growth inhibition, leukemia cells. In kind it is cell-based. The note with it: Homo sapiens, 72 h.
Source text: as §1, §2, §3

In data set [4] the test system is H9 (acute lymphoblastic leukemia) cells. Briefly: MTT cell growth inhibition, leukemia cells. In kind it is cell-based, human. The note with it: Homo sapiens, 72 h.
Source text: as §1, §2, §3

For data set [5], the system named is Jurkat (acute lymphoblastic leukemia) cells. Briefly: MTT cell growth inhibition, leukemia cells. In kind it is cell-based, human. The note with it: Homo sapiens, Jurkat, 72 h.
Source text: as §1, §2, §3

The test system of data set [6] is Kasumi-1 (acute myeloid leukemia M2 type) cells. Briefly: MTT cell growth inhibition, leukemia cells. The note with it: Homo sapiens, Kasumi 1, 72 h. In kind it is cell-based, human.
Source text: as §1, §2, §3

Data set [7] concerns RPMI 8226 (multiple myeloma) cells. Briefly: MTT cell growth inhibition, multiple myeloma cells. In kind it is cell-based, human. The note with it: Homo sapiens, RPMI-8226, 72 h. On the procedure:
Myeloma cell lines: RPMI8226 (multiple myeloma), purchased from Fuxiang Bio-tech Co. Ltd., Shanghai, China.
6000 well-growing cells were obtained and inoculated into wells of a 96-well cell culture plate. The culture medium was a RPMI-1640 cell culture medium containing 10% fetal bovine serum. After adding the 7-substituted fangchinoline derivatives of different concentrations the next day and mixing uniformly, the plate was placed in a carbon dioxide cell incubator (5% CO2) at 37° C. and incubated for 72 hours. Then the viable cell concentration was determined by the MTT method.

For data set [8], the system named is CNE (nasopharyngeal carcinoma) cells. Briefly: MTT cell growth inhibition, solid tumor cells. In kind it is cell-based, human. The note with it: Homo sapiens, 72 h. From the text: (§4) Hep-2 (laryngeal carcinoma), A549 (human lung cancer), CaES-17 (esophageal cancer cell), PC-3 (prostate cancer), CNE (nasopharyngeal carcinoma cell) and SK-OV-3 (ovarian cancer cell), all of which were purchased from China Center For Type Culture Collection; RKO (human colon adenocarcinoma cell), MGC-803 (human gastric cancer cell), MG-63 (osteosarcoma), and U87-MG (malignant glioma cell), all of which were purchased from Fuxiang Bio-tech Co. Ltd., Shanghai, China; PANC-1 (pancreatic cancer), Becap37 (human breast cancer cell), Hela (human cervical cancer cell) and Hep G2 (human liver cancer cell), all of which were donated by Cancer Research Institute of Zhejiang University, China.
(§5) 6000 well-growing human solid tumor cells were obtained and inoculated into wells of a 96-well cell culture plate. The culture medium was DMEM High Glucose cell culture medium containing 10% fetal bovine serum. The plate was placed in a carbon dioxide cell incubator (5% CO2) at 37° C. and incubated for 24 hours. After added with 7-substituted fangchinoline derivatives of different concentration and mixing uniformly, the plate was placed in a carbon dioxide cell incubator (5% CO2) at 37° C. and incubated for 72 hours. Then the viable cell concentration was determined by the MTT method.

For data set [9], the system named is CaEs-17 (esophageal cancer) cells. Briefly: MTT cell growth inhibition, solid tumor cells. In kind it is cell-based, human. The note with it: Homo sapiens, CaEs17, 72 h.
Source text: as §4, §5

The subject of data set [10] is PANC-1 (pancreatic cancer) cells. Briefly: MTT cell growth inhibition, solid tumor cells. The note with it: Homo sapiens, PANC-1, 72 h. In kind it is cell-based, human.
Source text: as §4, §5

Data set [11] concerns PC-3 (prostate cancer) cells. Briefly: MTT cell growth inhibition, solid tumor cells. In kind it is cell-based, human. The note with it: Homo sapiens, 72 h.
Source text: as §4, §5

Data set [12] concerns SK-OV-3 (ovarian cancer) cells. Briefly: MTT cell growth inhibition, solid tumor cells. In kind it is cell-based, human. The conditions noted are these: Homo sapiens, SK-OV-3, 72 h.
Source text: as §4, §5

Data set [13] has as its system A549 (human lung cancer) cells. Briefly: MTT cell growth inhibition, solid tumor cells. In kind it is cell-based. The note with it: Homo sapiens, A549, 72 h.
Source text: as §4, §5

Data set [14] relates to Becap-37 (human breast cancer) cells. Briefly: MTT cell growth inhibition, solid tumor cells. In kind it is cell-based. The conditions noted are these: Homo sapiens, 72 h.
Source text: as §4, §5

Data set [15] relates to Hela (human cervical cancer) cells. Briefly: MTT cell growth inhibition, solid tumor cells. The conditions noted are these: Homo sapiens, HeLa, 72 h. In kind it is cell-based.
Source text: as §4, §5

For data set [16], the system named is Hep G2 (human liver cancer) cells. Briefly: MTT cell growth inhibition, solid tumor cells. In kind it is cell-based. The note with it: Homo sapiens, HepG2, 72 h.
Source text: as §4, §5

The subject of data set [17] is Hep-2 (laryngeal carcinoma) cells. Briefly: MTT cell growth inhibition, solid tumor cells. The conditions noted are these: Homo sapiens, HEp-2, 72 h. In kind it is cell-based.
Source text: as §4, §5

The subject of data set [18] is MG-63 (osteosarcoma) cells. Briefly: MTT cell growth inhibition, solid tumor cells. In kind it is cell-based. The note with it: Homo sapiens, MG-63, 72 h.
Source text: as §4, §5

The test system of data set [19] is MGC-803 (human gastric cancer) cells. Briefly: MTT cell growth inhibition, solid tumor cells. In kind it is cell-based. The note with it: MGC-803, 72 h.
Source text: as §4, §5

Data set [20] concerns RKO (human colon adenocarcinoma) cells. Briefly: MTT cell growth inhibition, solid tumor cells. In kind it is cell-based. The note with it: Homo sapiens, 72 h.
Source text: as §4, §5

Data set [21] deals with U87-MG (malignant glioma) cells. Briefly: MTT cell growth inhibition, solid tumor cells. In kind it is cell-based. The note with it: Homo sapiens, U-87 MG, 72 h.
Source text: as §4, §5

The test system of data set [22] is human colon cancer cell line LoVo. The note with it: LoVo tumor-bearing nude mice, 60 days; cited from earlier work.

The values below come from patent US9328122B2, “7-substituted Hanfangichin B derivative, and preparation method and use thereof” (HANGZHOU BENSHENG PHARMACEUTICAL CO., LTD., priority 2012, dated 2016).

Usually IC50 stands for the concentration that inhibits the measured activity by half. The term IC90 denotes the concentration needed for an effect of 90%. A high value points to a need for much substance.

Values after ≈ are worked out from the molar mass of the structure shown. Counter-ions that a name gives are not always drawn.

Regarding `C#Cc1cccc(Nc2ncnc3cc(OCCOC)c(OCCOC)cc23)c1` [Erlotinib hydrochloride, reference compound], in data set [1] (Hep G2 transplanted tumor, Day 28, intragastric 3 times a day for 10 days), the Mass of tumor turned out to be 839 ± 270.62 mg. For the same compound, the “Tumor Inhibition rate” value in [1] (Hep G2 transplanted tumor, Day 28, intragastric 3 times a day for 10 days, control = 0) stood at 34.5%. Besides, the “Body Weight (g) Initial” value in [1] (Hep G2 tumor nude mice, before administration, intragastric 3 times a day, mean±SD) was 21.4 ± 0.26 g. Besides, the “Body Weight (g) Final” value in data set [1] (Hep G2 tumor nude mice, final, intragastric 3 times a day for 10 days, mean±SD) is listed as 20.4 ± 1.72 g.

As to `COc1ccc2cc1Oc1ccc(cc1)C[C@H]1c3cc(c(OC)cc3CCN1C)Oc1c(O)c(OC)cc3c1[C@H](C2)N(C)CC3` [FAN, Fangchinoline, reference compound], the IC50 in [2] was determined as 0.36 µg/mL (≈ 0.591 µM); in [3] it was 0.58 µg/mL (≈ 0.953 µM); in [4], 2.4 µg/mL (≈ 3.94 µM); in [5], 1.73 µg/mL (≈ 2.84 µM); in data set [6], 1.11 µg/mL (≈ 1.82 µM); in data set [7] it was 0.04 µg/mL (≈ 0.0657 µM). For the same compound, the IC50 in data set [8] is 2.4 µg/mL (≈ 3.94 µM); in data set [9] it was 1.94 µg/mL (≈ 3.19 µM); in data set [10] it was 3.14 µg/mL (≈ 5.16 µM); in data set [11], 4.08 µg/mL (≈ 6.7 µM); in data set [12], 3.61 µg/mL (≈ 5.93 µM); in [13], 3.26 µg/mL (≈ 5.36 µM). Further, the IC50 in [14] is 1.79 µg/mL (≈ 2.94 µM); in [15], 1.96 µg/mL (≈ 3.22 µM); in data set [16], 1.81 µg/mL (≈ 2.97 µM); in data set [17], 3.6 µg/mL (≈ 5.91 µM); in data set [18] it was 1.7 µg/mL (≈ 2.79 µM); in data set [19], 1.08 µg/mL (≈ 1.77 µM). Further, the values for the IC50 in data set [20] and in data set [21] were 0.92 µg/mL (≈ 1.51 µM) and 1.12 µg/mL (≈ 1.84 µM), respectively. Also, the IC90 in data set [2] stood at 4.13 µg/mL (≈ 6.78 µM); in data set [3], 2.59 µg/mL (≈ 4.25 µM); in [4], 6.6 µg/mL (≈ 10.8 µM); in data set [5] it was 5.25 µg/mL (≈ 8.62 µM); in data set [6] it was 4.11 µg/mL (≈ 6.75 µM); in data set [7], 0.5 µg/mL (≈ 0.821 µM). Also, the 90% effect concentration (IC90) in [8] came to 5.7 µg/mL (≈ 9.36 µM); in data set [9], 8.98 µg/mL (≈ 14.8 µM); in data set [10], 11.6 µg/mL (≈ 19.1 µM); in data set [11], 7.64 µg/mL (≈ 12.6 µM); in [12], 14.5 µg/mL (≈ 23.8 µM); in [13] it was 9.81 µg/mL (≈ 16.1 µM). Besides, the concentration for an effect of 90% (IC90) in data set [14] is 6.2 µg/mL (≈ 10.2 µM); in [15], 6.12 µg/mL (≈ 10.1 µM); in data set [16], 5.23 µg/mL (≈ 8.59 µM); in data set [17], 10 µg/mL (≈ 16.5 µM); in data set [18], 3.7 µg/mL (≈ 6.08 µM); in data set [19], 6.42 µg/mL (≈ 10.5 µM). Moreover, the IC90 in [20] is 3.11 µg/mL (≈ 5.11 µM); in data set [21], 3.79 µg/mL (≈ 6.23 µM). Further, in [22], the “adverse reactions during the administration” value is given as “do not exhibit adverse reactions”.
